Results on 17 compounds are retold here after patent US20260265267A1, “NOVEL COMPOUNDS WITH MTORC2-INHIBITORY ACTIVITY AND USES THEREOF” (Aliad Biopharma, priority 2023, published 2026).

The target in one experiment is T1, mTORC2 (Homo sapiens, UniProt P42345).
T1 construct: the following experiments were conducted in HeLa cells; endogenous in cells; host or cells: HeLa
The experiment can be described thus: mTORC2 inhibitory activity in HeLa cells (Akt Ser473 phosphorylation, Western blot). It counts as cell-based. Particulars: for selective inhibition of mTORC2: 40 μM, versus mTORC1; for selective inhibition of mTORC2 / remaining activity at 40 µM: 9 hours; for remaining activity at 40 µM: read-out: pSer473-AKT/AKT (% control); for inhibition at 40 µM: HeLa, 9 h, read-out: reduction in Akt Ser473 phosphorylation compared to the control group. As for the experimental part: (§1) Specifically, HeLa cells were cultured in a 5% CO2 incubator at 37° C. in DMEM (Dulbecco's Modified Eagles Media) medium supplemented with 10% FBS, penicillin (100 unit/ml), and streptomycin (100 μg/ml). Cultivation was started by seeding 4×10^5 cells in a 100 mm culture dish, and subculture was carried out every 3 days.
(§2) Human cell line HeLa cells were seeded in a 60 mm culture dish at a density of 2×10^5 cells/plate, and cultured for 24 hours. Then, HeLa cells were treated with 70 types of compounds at a concentration of 40 μM each for 9 hours. HeLa cells were washed twice with cold 1×PBS, and then lysed with 100 μl of RIPA buffer (50 mM Tris-HCl (pH7.4), 0.25% sodium deoxycholate, 50 mM NaF, 1% NP-40, 150 mM NaCl, 1 mM β-glycerophosphate, 1 mM PMSF, 1 mM NaVO4, 1 μg/ml leupeptin, 1 μg/ml pepstatin A, 10 nM calyculin A, 10 μg/ml aprotinin, 1 mM EDTA) to hemolyze the cell membrane. Then, the lysates were centrifuged at 12,000 rpm at 4° C. for 10 minutes to collect the supernatant, which is cell lysate. Protein concentration in the cell lysate was determined using the BCA protein assay kit (Thermo Fisher Scientific), and equal amounts of protein were separated by SDS-PAGE.
(§3) Western blot analysis was performed by the following method. […] After washing the membrane three times for 5 minutes each with TBS-T buffer, it was incubated with primary antibodies diluted in TBS-T buffer containing 5% skim milk or 5% BSA overnight at 4° C. Subsequently, the membrane was washed three times for 5 minutes each with TBS-T buffer, and then incubated with secondary antibodies diluted in TBS-T buffer containing 5% skim milk at room temperature for 30 minutes. The membrane was washed five times for 5 minutes each with TBS-T buffer containing 5% skim milk, and then the protein bands bound by the secondary antibody were detected using a chemiluminescence method. The primary antibodies used were Akt (cell signaling, #4691), pAkt(S473) (Cell signaling, #4060), p70S6K (Cell signaling, #S6198), pp70S6K(T389) (cell signaling, #9205S), LC3-II (MBL, #PM036), and the secondary antibodies used were HRP conjugated anti-rabbit (Jackson immunoresearch laboratory, #711-035-152) and HRP conjugated anti-mouse IgG (Jackson immunoresearch laboratory, #515-035-072).
As an mTORC2 activity indicator in HeLa cells, the level of Akt Ser473 phosphorylation was selected as a marker, and the phosphor-Akt (Ser473) signal obtained from Western blot analysis was normalized to the pan-Akt signal, and the data were expressed as a percentage relative to the control group treated with DMSO only, which is a vehicle.
(In western blotting, separated proteins are transferred to a membrane and probed.)

A further experiment has as its target T2, mTORC1 (Homo sapiens, UniProt P42345).
T2 construct: the following experiments were conducted in HeLa cells; endogenous in cells; host or cells: HeLa
Description: mTORC1 inhibitory activity in HeLa cells (p70S6K Thr389 phosphorylation, Western blot). It counts as cell-based. Particulars: for remaining activity at 40 µM: read-out: pThr389-S6K/S6K (% control); for inhibition at 40 µM: HeLa, 9 h, read-out: reduction in p70S6K Thr389 phosphorylation compared to the control group. As for the experimental part: as §1, §2, §3
As an mTORC1 activity indicator in HeLa cells, the level of p70S6K Thr389 phosphorylation was selected as a marker, and the level of phosphor-p70S6K (Thr389) signal measured by Western blot analysis was normalized to a level of pan-p70S6K signal, and then expressed as a percentage of the control group treated with only DMSO, which is a vehicle.

Another experiment concerns LC3-II. The experiment can be described thus: LC3-II formation as indicator of autophagy in HeLa cells (Western blot). The note with it: Homo sapiens, 9 hours, read-out: LC3-II (% control). It counts as cell-based, human. As for the experimental part:
as §1, §2, §3
LC3-II formation was selected as an indicator of autophagy in HeLa cells, and the LC3-II signal obtained from Western blot analysis was normalized to the pan-Akt signal and the data were expressed as a percentage relative to the control group treated with DMSO only, which is a vehicle.

On to `O=C1c2cc(F)ccc2COc2cc3c(cc21)OCO3` [HN2203, 9-fluoro[2]benzoxepino[3,4-f]-1,3-benzodioxol-11(6H)-one], for which, at mTORC2, the “selective inhibition of mTORC2” value was “selectively inhibit mTORC2”, the remaining activity at 40 µM came to 28% and the inhibition at 40 µM is over 20%. Further, the remaining activity at 40 µM on mTORC1 (9 hours) was 179%. Moreover, the activity at 40 µM with LC3-II was 119%.
In the case of `CN(C)c1cc2c(cc1F)C(=O)c1cc3c(cc1OC2)OCO3` [HN2209, 8-(dimethylamino)-9-fluoro[2]benzoxepino[3,4-f]-1,3-benzodioxol-11(6H)-one], at mTORC2, the “selective inhibition of mTORC2” value is recorded as “selectively inhibit mTORC2”, the remaining activity at 40 µM came out at 54% and the inhibition at 40 µM is over 20%. For the same compound, the remaining activity at 40 µM at mTORC1 (9 hours) amounted to 191%. Also, in the experiment with LC3-II, the activity at 40 µM worked out at 124%.
On to `O=C1c2cc(F)c(N3CCCCC3)cc2COc2cc3c(cc21)OCO3` [HN2211, 8-(piperidinyl)-9-fluoro[2]benzoxepino[3,4-f]-1,3-benzodioxol-11(6H)-one], for which the remaining activity at 40 µM at mTORC2 was 118%; at mTORC1 (9 hours) it was 77%. Further, the inhibition at 40 µM on mTORC1 was over 20%. For the same compound, the activity at 40 µM in the experiment on LC3-II is 122%.
Take `O=C1c2cc(-c3ccc(Cl)cc3)ccc2COc2cc3c(cc21)OCO3` [HN2214, 9-(4-chlorophenyl)[2]benzoxepino[3,4-f]-1,3-benzodioxol-11(6H)-one]: on mTORC2, the “selective inhibition of mTORC2” value is listed as “selectively inhibit mTORC2”, the remaining activity at 40 µM came to 67% and the inhibition at 40 µM was over 20%. The remaining activity at 40 µM on mTORC1 (9 hours) worked out at 99%. Moreover, the activity at 40 µM in the experiment with LC3-II was 154%.
Take `O=C1c2cc(-c3ccoc3)ccc2COc2cc3c(cc21)OCO3` [HN2216, 9-(3-furanyl)[2]benzoxepino[3,4-f]-1,3-benzodioxol-11(6H)-one]: on mTORC2, the “selective inhibition of mTORC2” value is “selectively inhibit mTORC2”, the remaining activity at 40 µM is 64% and the inhibition at 40 µM was over 20%. The “increase in S6K Thr389 phosphorylation” value at mTORC1 (40 μM, 9 hours) turned out to be 21%. The remaining activity at 40 µM on mTORC1 (9 hours) amounted to 121%. The activity at 40 µM with LC3-II was 99%.
Consider `Cc1ccc(-c2ccc3c(c2)C(=O)c2cc4c(cc2OC3)OCO4)cc1` [HN2217, 9-(p-tolyl)[2]benzoxepino[3,4-f]-1,3-benzodioxol-11(6H)-one], for which, on mTORC2, the “selective inhibition of mTORC2” value is “selectively inhibit mTORC2”, the remaining activity at 40 µM came to 38% and the inhibition at 40 µM was over 20%. Moreover, the remaining activity at 40 µM on mTORC1 (9 hours) is 224%. Moreover, the activity at 40 µM in the experiment on LC3-II stood at 149%.
On the same counts, the results for `O=C1c2cc(F)c(N3CCC(Cc4ccccc4)CC3)cc2COc2cc3c(cc21)OCO3` [HN2222, 8-(4-benzylpiperidin-1-yl)-9-fluoro[2]benzoxepino[3,4-f]-1,3-benzodioxol-11(6H)-one] are “selectively inhibit mTORC2”, 69%, over 20%, 95% and 89%.
Regarding `O=C1c2cc3c(cc2OCc2c1ccc(F)c2F)OCO3` [HN2225, 7,8-difluoro[2]benzoxepino[3,4-f]-1,3-benzodioxol-11(6H)-one], on mTORC2, the “selective inhibition of mTORC2” value is given as “selectively inhibit mTORC2”, the remaining activity at 40 µM amounted to 66% and the inhibition at 40 µM was over 20%. Besides, on mTORC1 (9 hours), the remaining activity at 40 µM was 100%. Besides, the activity at 40 µM in the experiment with LC3-II was found to be 100%.
As for `O=C1c2cc3c(cc2OCc2c1ccc(NC1CCCCC1)c2F)OCO3` [HN2231, 8-(cyclohexylamino)-7-fluoro[2]benzoxepino[3,4-f]-1,3-benzodioxol-11(6H)-one], the remaining activity at 40 µM at mTORC2 was 100%; on mTORC1 (9 hours) it was 49%. Further, the inhibition at 40 µM on mTORC1 is over 20%. The activity at 40 µM in the experiment with LC3-II was 122%.
Consider `O=C1c2cc3c(cc2OCc2c1ccc(N1CCC(Cc4ccccc4)CC1)c2F)OCO3` [HN2232, 8-(4-benzylpiperidin-1-yl)-7-fluoro[2]benzoxepino[3,4-f]-1,3-benzodioxol-11(6H)-one], for which, at mTORC2, the “selective inhibition of mTORC2” value is on record as “selectively inhibit mTORC2”, the remaining activity at 40 µM is 48% and the inhibition at 40 µM is over 20%. For the same compound, the remaining activity at 40 µM at mTORC1 (9 hours) was found to be 136%. Also, the activity at 40 µM in the experiment with LC3-II was 64%.
On to `COc1ccc(CCNc2ccc3c(c2F)COc2cc4c(cc2C3=O)OCO4)cc1` [HN2233, 8-((4-methoxyphenethyl)amino)-7-fluoro[2]benzoxepino[3,4-f]-1,3-benzodioxol-11(6H)-one], for which, at mTORC2, the “selective inhibition of mTORC2” value was “selectively inhibit mTORC2”, the remaining activity at 40 µM turned out to be 74% and the inhibition at 40 µM was over 20%. Also, the remaining activity at 40 µM on mTORC1 (9 hours) turned out to be 107%. Moreover, in the experiment with LC3-II, the activity at 40 µM was 121%.
On the same counts, the results for `CS(=O)(=O)Nc1cc2c(cc1F)C(=O)c1cc3c(cc1OC2)OCO3` [HN2301, N-(9-fluoro-11-oxo-6,11-dihydro-[1,3]dioxolo[4′,5′:4,5]benzo[1,2-b]benzo[e]oxepin-8-yl)methanesulfonamide] are “selectively inhibit mTORC2”, 54%, over 20%, 81% and 96%.
With `COc1cc2c(cc1OC)C(=O)c1cc(-c3cc(OC)c(OC)c(OC)c3)ccc1CS2` [HN2305, 2,3-dimethoxy-9-(3,4,5-trimethoxyphenyl)dibenzo[b,e]thiepin-11(6H)-one], the remaining activity at 40 µM turned out to be 47% on mTORC2 and 64% at mTORC1 (9 hours). In addition, the inhibition at 40 µM at mTORC2 and on mTORC1 was over 20% in each case.
`COc1ccc(-c2ccc3c(c2)C(=O)c2cc(OC)c(OC)cc2SC3)cc1` [HN2306, 2,3-dimethoxy-9-(4-methoxyphenyl)dibenzo[b,e]thiepin-11(6H)-one]: on mTORC2, the “selective inhibition of mTORC2” value was “selectively inhibit mTORC2”, the remaining activity at 40 µM is 64% and the inhibition at 40 µM is over 20%. The remaining activity at 40 µM at mTORC1 (9 hours) is 257%.
For the compound `COc1cc2c(cc1OC)C(=O)c1cc(-c3ccc(C)cc3)ccc1CS2` [HN2307, 2,3-dimethoxy-9-(p-tolyl)dibenzo[b,e]thiepin-11(6H)-one], on mTORC2, the “selective inhibition of mTORC2” value is reported as “selectively inhibit mTORC2”, the remaining activity at 40 µM stood at 72% and the inhibition at 40 µM is over 20%. Besides, the remaining activity at 40 µM at mTORC1 (9 hours) worked out at 106%.
On the same counts, the results for `COc1cc2c(cc1OC)C(=O)c1cc(-c3ccc(Cl)cc3)ccc1CS2` [HN2309, 9-(4-chlorophenyl)-2,3-dimethoxydibenzo[b,e]thiepin-11(6H)-one] are “selectively inhibit mTORC2”, 66%, over 20% and 106%.
Take `COc1cc2c(cc1OC)C(=O)c1cc(F)c(NCc3ccccc3)cc1CC2` [HN2317, 2-(benzylamino)-3-fluoro-7,8-dimethoxy-10,11-dihydro-5H-dibenzo[a,d][7]annulen-5-one]: the remaining activity at 40 µM on mTORC2 came to 107%; at mTORC1 (9 hours), 69%. Moreover, the inhibition at 40 µM at mTORC1 is over 20%.
